Results as given in patent publication US9593149B2, “Amylin and calcitonin receptor agonist” (Novo Nordisk A/S, priority 2014, dated 2017).
≈ marks a conversion by molar mass, not a printed value. Numbered stars: 1 amine (or outer) side, 2 acyl side, 3 side chain; on linkers, the order of the positions; unused ones are H or OH. Side chains are listed from the residue outwards. Peptide text beside a SMILES is read from it. * marks the point of attachment. C20 diacid = O=C(O)CCCCCCCCCCCCCCCCCCC(=O)*; C16 diacid = O=C(O)CCCCCCCCCCCCCCC(=O)*; γGlu = O=C(O)[C@H](CCC(=O)[*:2])N[*:1]

Experiments:
[1] = Assay (IV) determination of solubility; type: physicochemical
Experimental: Assay (IV)—Determination of Solubility
The mimylin peptide was dissolved in water at ˜500 nmol/ml and mixed 1:1 with a series of buffers (100 mM glycylglycine pH 3.0, 100 mM glycylglycine pH 4.0, 100 mM glycylglycine pH 5.0, 100 mM bistrispropane pH 6.0, 100 mM bistrispropane pH 6.5, 100 mM bistrispropane pH 7.0, 100 mM bistrispropane pH 7.5, 100 mM bistrispropane pH 8.0).

[2] = biological target: T1, rat calcitonin receptor (Rattus norvegicus, UniProt P32214); assay: Assay (VIII) binding to the rat calcitonin receptor; settings: membranes; read-out: rCT-R binding IC50
T1 construct: expressed in transfected cells; host or cells: BHK tk'ts 13 (transient, FuGENE 6)
T1 sequence (P32214 25-479 isoform P32214-2 limits assumed): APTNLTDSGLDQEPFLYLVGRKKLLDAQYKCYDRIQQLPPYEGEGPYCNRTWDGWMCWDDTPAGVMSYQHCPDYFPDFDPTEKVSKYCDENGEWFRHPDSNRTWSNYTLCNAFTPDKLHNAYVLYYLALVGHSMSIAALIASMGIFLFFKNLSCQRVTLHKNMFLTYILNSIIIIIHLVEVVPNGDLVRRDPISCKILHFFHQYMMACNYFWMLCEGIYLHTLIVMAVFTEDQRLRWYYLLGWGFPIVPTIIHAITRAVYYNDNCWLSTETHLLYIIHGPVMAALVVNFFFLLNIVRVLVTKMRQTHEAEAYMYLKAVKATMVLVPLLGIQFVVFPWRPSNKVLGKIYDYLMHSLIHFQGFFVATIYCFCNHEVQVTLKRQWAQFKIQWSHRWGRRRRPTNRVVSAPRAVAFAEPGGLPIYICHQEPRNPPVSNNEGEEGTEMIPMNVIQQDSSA
Procedure, shortened: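 Affinity given as IC50 from a one-site competition fit of bound radioactivity, counted by scintillation after cold HBSS washes and NaOH/SDS lysis. Membranes came from BHK tk'ts 13 cells transiently expressing the rat receptor; other conditions followed the human calcitonin receptor protocol.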

Row | SMILES | Solubility ([1]; pH 3.0) | Solubility ([1]; pH 4.0) | Solubility ([1]; pH 5.0) | Solubility ([1]; pH 6.0) | Solubility ([1]; pH 6.5) | Solubility ([1]; pH 7.0) | Solubility ([1]; pH 7.5) | Solubility ([1]; pH 8.0) | IC50 [2] [nM] | solubility at 18 h ([1]; pH 5.0) [µM] | solubility at 18 h ([1]; pH 4.0) [µM] | solubility at 18 h ([1]; pH 6.0) [µM] | solubility at 18 h ([1]; pH 6.5) [µM]
1 | CC(C)C[C@H](NC(=O)[C@H](C)NC(=O)[C@H](C)NC(=O)[C@@H](NC(=O)[C@H](CO)NC(=O)[C@H](CC(C)C)NC(=O)[C@H](CCC(=O)O)NC(=O)[C@H](CO)NC(=O)[C@H](C)NC(=O)CCCCCCCCCCCCCCC(=O)O)[C@@H](C)O)C(=O)NCC(=O)N[C@@H](CCCNC(=N)N)C(=O)N[C@@H](CC(C)C)C(=O)N[C@@H](CO)C(=O)N[C@@H](C)C(=O)N[C@@H](CCC(=O)O)C(=O)N[C@@H](CC(C)C)C(=O)N[C@@H](Cc1cnc[nH]1)C(=O)N[C@@H](CCC(=O)O)C(=O)N[C@@H](CC(C)C)C(=O)N[C@@H](C)C(=O)N[C@H](C(=O)N[C@@H](CC(C)C)C(=O)N1CCC[C@H]1C(=O)N[C@@H](CCCNC(=N)N)C(=O)N[C@H](C(=O)N[C@@H](CCC(=O)O)C(=O)N[C@H](C(=O)NCC(=O)N[C@@H](CO)C(=O)NCC(=O)N[C@@H](CO)C(=O)N1CCC[C@H]1C(N)=O)[C@@H](C)O)[C@@H](C)O)[C@@H](C)O [compound 49, [N-terminal(C16 diacid), des1, 30S, 31G]mimylin] ({C16 diacid}-ASELSTAALGRLSAELHELATLPRTETGSGSP-NH2) | ≧200 μM | ≧200 μM | ≧200 μM | ≧200 μM | ≧200 μM | ≧200 μM | ≧200 μM | ≧200 μM | 0.011 | – | – | – | –
2 | CC(C)C[C@H](NC(=O)[C@H](C)NC(=O)[C@H](C)NC(=O)[C@@H](NC(=O)[C@H](CO)NC(=O)[C@H](CC(C)C)NC(=O)[C@H](CCC(=O)O)NC(=O)[C@H](CO)NC(=O)[C@H](C)NC(=O)CC[C@H](NC(=O)CCCCCCCCCCCCCCCCCCC(=O)O)C(=O)O)[C@@H](C)O)C(=O)NCC(=O)N[C@@H](CCCNC(=N)N)C(=O)N[C@@H](CC(C)C)C(=O)N[C@@H](CO)C(=O)N[C@@H](C)C(=O)N[C@@H](CCC(=O)O)C(=O)N[C@@H](CC(C)C)C(=O)N[C@@H](Cc1cnc[nH]1)C(=O)N[C@@H](CCC(=O)O)C(=O)N[C@@H](CC(C)C)C(=O)N[C@@H](C)C(=O)N[C@H](C(=O)N[C@@H](CC(C)C)C(=O)N1CCC[C@H]1C(=O)N[C@@H](CCCNC(=N)N)C(=O)N[C@H](C(=O)N[C@@H](CCC(=O)O)C(=O)N[C@H](C(=O)NCC(=O)N[C@@H](CO)C(=O)NCC(=O)N[C@@H](CO)C(=O)N[C@@H](Cc1ccc(O)cc1)C(N)=O)[C@@H](C)O)[C@@H](C)O)[C@@H](C)O [compound 59, [N-terminal(C20 diacid-gGlu), des1, 30S, 31G, 33Y]mimylin] ({C20 diacid-γGlu}-ASELSTAALGRLSAELHELATLPRTETGSGSY-NH2) | ≧200 μM | ≧200 μM | – | ≧200 μM | ≧200 μM | ≧200 μM | ≧200 μM | ≧200 μM | 0.023 | 73 (≈ 273 µg/mL) | – | – | –
3 | CC(=O)N[C@@H](C)C(=O)N[C@@H](CO)C(=O)N[C@@H](CCC(=O)O)C(=O)N[C@@H](CC(C)C)C(=O)N[C@@H](CO)C(=O)N[C@H](C(=O)N[C@@H](C)C(=O)N[C@@H](C)C(=O)N[C@@H](CC(C)C)C(=O)NCC(=O)N[C@@H](CCCNC(=N)N)C(=O)N[C@@H](CC(C)C)C(=O)N[C@@H](CO)C(=O)N[C@@H](C)C(=O)N[C@@H](CCC(=O)O)C(=O)N[C@@H](CC(C)C)C(=O)N[C@@H](Cc1cnc[nH]1)C(=O)N[C@@H](CCCCNC(=O)CC[C@H](NC(=O)CCCCCCCCCCCCCCCCCCC(=O)O)C(=O)O)C(=O)N[C@@H](CC(C)C)C(=O)N[C@@H](C)C(=O)N[C@H](C(=O)N[C@@H](CC(C)C)C(=O)N1CCC[C@H]1C(=O)N[C@@H](CCCNC(=N)N)C(=O)N[C@H](C(=O)N[C@@H](CCC(=O)O)C(=O)N[C@H](C(=O)NCC(=O)N[C@@H](CO)C(=O)NCC(=O)N[C@@H](CO)C(=O)N1CCC[C@H]1C(N)=O)[C@@H](C)O)[C@@H](C)O)[C@@H](C)O)[C@@H](C)O [compound 70, [N-terminal(acetyl), des1, 19K(C20 diacid-gGlu), 30S, 31G]mimylin] (Ac-ASELSTAALGRLSAELHK([γGlu-C20 diacid])LATLPRTETGSGSP-NH2) | ≧200 μM | ≧200 μM | ≧200 μM | ≧200 μM | ≧200 μM | ≧200 μM | ≧200 μM | ≧200 μM | 0.071 | – | – | – | –
4 | CC(C)C[C@H](NC(=O)CNC(=O)[C@H](CO)NC(=O)[C@H](C)NC(=O)CC[C@H](NC(=O)CCCCCCCCCCCCCCCCCCC(=O)O)C(=O)O)C(=O)N[C@@H](CO)C(=O)N[C@H](C(=O)N[C@@H](C)C(=O)N[C@H](C(=O)N[C@@H](CC(C)C)C(=O)NCC(=O)N[C@@H](CCCCN)C(=O)N[C@@H](CC(C)C)C(=O)N[C@@H](CO)C(=O)N[C@@H](CCC(N)=O)C(=O)N[C@@H](CCC(=O)O)C(=O)N[C@@H](CC(C)C)C(=O)N[C@@H](Cc1cnc[nH]1)C(=O)N[C@@H](CCC(=O)O)C(=O)N[C@@H](CC(C)C)C(=O)N[C@@H](CCC(N)=O)C(=O)N[C@H](C(=O)N[C@@H](Cc1ccc(O)cc1)C(=O)N1CCC[C@H]1C(=O)N1CCC[C@H]1C(=O)N[C@H](C(=O)N[C@@H](CCC(=O)O)C(=O)N[C@H](C(=O)NCC(=O)N[C@@H](CO)C(=O)NCC(=O)N[C@H](C(=O)N[C@@H](Cc1ccc(O)cc1)C(N)=O)[C@@H](C)O)[C@@H](C)O)[C@@H](C)O)[C@@H](C)O)C(C)C)[C@@H](C)O [compound 131, [N-terminal(C20 diacid-gGlu), des1, 4G, 9V, 12K, 15Q, 21Q, 23Y, 25P, 30S, 31G, 32T, 33Y]mimylin] ({C20 diacid-γGlu}-ASGLSTAVLGKLSQELHELQTYPPTETGSGTY-NH2) | ≧200 μM | – | ≧200 μM | ≧200 μM | ≧200 μM | ≧200 μM | ≧200 μM | ≧200 μM | 0.246 | – | 10 (≈ 37.9 µg/mL) | – | –
5 | CC(C)C[C@H](NC(=O)[C@H](CO)NC(=O)[C@H](C)NC(=O)[C@@H](NC(=O)[C@H](CO)NC(=O)[C@H](CC(C)C)NC(=O)[C@H](CCC(=O)O)NC(=O)[C@H](CO)NC(=O)[C@H](C)NC(=O)CC[C@H](NC(=O)CCCCCCCCCCCCCCCCCCC(=O)O)C(=O)O)[C@@H](C)O)C(=O)NCC(=O)N[C@@H](CCCNC(=N)N)C(=O)N[C@@H](CC(C)C)C(=O)N[C@@H](CO)C(=O)N[C@@H](C)C(=O)N[C@@H](CCC(=O)O)C(=O)N[C@@H](CC(C)C)C(=O)N[C@@H](Cc1cnc[nH]1)C(=O)N[C@@H](CCC(=O)O)C(=O)N[C@@H](CC(C)C)C(=O)N[C@@H](CO)C(=O)N[C@H](C(=O)N[C@@H](Cc1ccc(O)cc1)C(=O)N1CCC[C@H]1C(=O)N[C@@H](CCCNC(=N)N)C(=O)N[C@H](C(=O)N[C@@H](CCC(=O)O)C(=O)N[C@H](C(=O)NCC(=O)N[C@@H](CO)C(=O)NCC(=O)N[C@@H](CO)C(=O)N[C@@H](Cc1ccc(O)cc1)C(N)=O)[C@@H](C)O)[C@@H](C)O)[C@@H](C)O [compound 100, [N-terminal(C20 diacid-gGlu), des1, 9S, 21S, 23Y, 30S, 31G, 33Y]mimylin] ({C20 diacid-γGlu}-ASELSTASLGRLSAELHELSTYPRTETGSGSY-NH2) | ≧200 μM | – | – | – | – | ≧200 μM | ≧200 μM | ≧200 μM | 0.062 | 1 (≈ 3.82 µg/mL) | – | 63 (≈ 241 µg/mL) | 180 (≈ 688 µg/mL)
6 | CC(C)C[C@H](NC(=O)[C@H](C)NC(=O)[C@H](C)NC(=O)[C@@H](NC(=O)[C@H](CO)NC(=O)[C@H](CC(C)C)NC(=O)[C@H](CCC(=O)O)NC(=O)[C@H](CO)NC(=O)[C@H](C)N)[C@@H](C)O)C(=O)NCC(=O)N[C@@H](CCCNC(=N)N)C(=O)N[C@@H](CC(C)C)C(=O)N[C@@H](CO)C(=O)N[C@@H](C)C(=O)N[C@@H](CCCCNC(=O)CC[C@H](NC(=O)CCCCCCCCCCCCCCCCCCC(=O)O)C(=O)O)C(=O)N[C@@H](CC(C)C)C(=O)N[C@@H](Cc1cnc[nH]1)C(=O)N[C@@H](CCC(=O)O)C(=O)N[C@@H](CC(C)C)C(=O)N[C@@H](C)C(=O)N[C@H](C(=O)N[C@@H](CC(C)C)C(=O)N1CCC[C@H]1C(=O)N[C@@H](CCCNC(=N)N)C(=O)N[C@H](C(=O)N[C@@H](CCC(=O)O)C(=O)N[C@H](C(=O)NCC(=O)N[C@@H](CO)C(=O)NCC(=O)N[C@@H](CO)C(=O)N1CCC[C@H]1C(N)=O)[C@@H](C)O)[C@@H](C)O)[C@@H](C)O [compound 53, [des1, 16K(C20 diacid-gGlu), 30S, 31G]mimylin] (H-ASELSTAALGRLSAK([γGlu-C20 diacid])LHELATLPRTETGSGSP-NH2) | ≧200 μM | ≧200 μM | ≧200 μM | ≧200 μM | ≧200 μM | ≧200 μM | ≧200 μM | ≧200 μM | 0.065 | – | – | – | –
